{
  "source": "patent US10450593B2",
  "about": "“Type II fatty acid synthesis enzymes in reverse β-oxidation” (William Marsh Rice University, priority 2014, dated 2019)",
  "key": {"FabI [1]": {"molecular_target": "T1, FabI (Escherichia coli, UniProt P0AEK4)", "T1 sequence (P0AEK4 1-262)": "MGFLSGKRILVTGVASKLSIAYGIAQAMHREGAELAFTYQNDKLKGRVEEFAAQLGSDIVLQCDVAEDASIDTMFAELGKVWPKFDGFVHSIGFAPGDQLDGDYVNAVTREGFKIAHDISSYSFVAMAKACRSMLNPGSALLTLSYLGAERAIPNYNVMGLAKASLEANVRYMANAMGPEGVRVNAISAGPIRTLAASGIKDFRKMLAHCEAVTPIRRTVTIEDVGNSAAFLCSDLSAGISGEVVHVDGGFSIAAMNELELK", "test": "Inhibition of FabI crotonyl-CoA reduction activity by CoA thioesters", "format": "biochemical, E. coli", "conditions": "for inhibitory effect on FabI activity: CoA thioester at 20 or 200 μM", "from_the_text": "FIG. 3. Characterization of crotonyl-CoA reduction to butyryl-CoA by FabI. FIG. 3A. Mass spectrum analysis of FabI reduction of crotonyl-CoA to butyryl-CoA. (i) Controls of crotonyl-CoA (836.3 m/z—gray) and butyryl-CoA (838.3 m/z—black). (ii) Reaction mixture without FabI. (iii) Reaction mixture with FabI. FIG. 3B. pH activity profile of FabI with crotonyl-CoA and NADH relative to pH 7.5 (1.0). FIG. 3C. Inhibition profile of crotonyl-CoA reduction activity for FabI with the indicated CoA thioesters at either 20 or 200 μM relative to activity in absence of inhibitor (100%).\n(§1) For measurement of enzymatic activities from fermentation samples, cells were disrupted as previously reported (Dellomonaco, Clomburg, Miller, & Gonzalez, 2011). The HIS Tagged FabI protein was expressed from pCA24N-FabI from the ASKA collection (Kitagawa et al., 2005) in BL21(DE3) cells (NEW ENGLAND BIOLABS™) induced at OD600≈0.4 with 0.1 mM IPTG and shaken O/N at Room Temperature. FabI protein was harvested and purified as previously reported using Talon Metal Affinity Resin (CLONTECH LABORATORIES™) (Clomburg et al., 2012).\n(§2) Thiolase activity (Wiesenborn, Rudolph, & Papoutsakis, 1988) and β-hydroxybutyryl-CoA dehydrogenase activity (Bond-Watts, Bellerose, & Chang, 2011a) were monitored accordingly as previously described (Clomburg et al., 2012). Trans-enoyl-CoA reductase activity for egTER, FabI, bsFabL, efFabK and vcFabV were monitored by loss of NADH (Bond-Watts et al., 2011a; Clomburg et al., 2012). Acyl-CoA dehydrogenase activity was monitored by measuring the reduction of Methyl-Thiazolyl Blue (MTT) coupled to the oxidation of butyryl-CoA (O'Brien & Frerman, 1977) in cellular extracts disrupted as above with the addition of 5 μM flavin adenine dinucleotide (FAD).\nTo understand the potential of utilizing FabI for BOX-R, we examined the effect of key CoA thioester intermediates of the BOX-R as well as a broad range of acyl-CoAs on FabI activity […]."}, "FabI [2]": {"molecular_target": "T1, FabI"}, "FabI [3]": {"molecular_target": "T1, FabI", "conditions": "substrate of FabI, Bergler 1994; cited from earlier work"}, "[4]": {"substrate": "C/C=C/C(=O)SCCNC(=O)CCNC(=O)[C@H](O)C(C)(C)COP(=O)(O)OP(=O)(O)OC[C@H]1O[C@@H](n2cnc3c(N)ncnc32)[C@H](O)[C@@H]1OP(=O)(O)O", "test": "Kinetic parameters of purified N-terminal His-tagged FabI with crotonyl-CoA and NADH", "format": "biochemical, E. coli", "conditions": "other: substrate of purified FabI, NADH", "experimental": "as §1, §2\nN-terminal His-tagged FabI was purified from an ASKA collection vector (Kitagawa et al., 2005) expressed in the strain BL21(DE3). […] This change in kcat increases the expected rate of crotonyl-CoA reduction by FabI to a value between 1.02×10^−7M s^−1 and 7.86×10^−11 M s^−1, which is in agreement with the rate observed in our cultures. To verify that FabI is utilizing NADH to convert crotonyl-CoA to butyryl-CoA, the reaction was monitored via HPLC-MS, which confirmed that FabI converts crotonyl-CoA almost completely to butyryl-CoA (FIG. 3a)."}},
  "note": "Where two headings read alike, the source gives them in different places.",
  "data": [
    {"molecule": "CCCCCCCCCCCCCC(=O)SCCNC(=O)CCNC(=O)[C@H](O)C(C)(C)COP(=O)(O)OP(=O)(O)OC[C@H]1O[C@@H](n2cnc3c(N)ncnc32)[C@H](O)[C@@H]1OP(=O)(O)O", "note": "[myristoyl-CoA]", "values": [
      {"measurement": "percent inhibition of FabI crotonyl-CoA reduction activity", "setting": "FabI [1]; CoA thioester at 200 μM", "result": "highest percent inhibition"}
    ]},
    {"molecule": "CC(=O)CC(=O)SCCNC(=O)CCNC(=O)[C@H](O)C(C)(C)COP(=O)(O)OP(=O)(O)OC[C@H]1O[C@@H](n2cnc3c(N)ncnc32)[C@H](O)[C@@H]1OP(=O)(O)O", "note": "[acetoacetyl-CoA]", "values": [
      {"measurement": "inhibitory effect on FabI activity", "setting": "FabI [1]", "result": "minimal inhibitory effects"}
    ]},
    {"molecule": "CC(O)CC(=O)SCCNC(=O)CCNC(=O)[C@H](O)C(C)(C)COP(=O)(O)OP(=O)(O)OC[C@H]1O[C@@H](n2cnc3c(N)ncnc32)[C@H](O)[C@@H]1OP(=O)(O)O", "note": "(stereo partly shown) [3-hydroxy-butyryl-CoA]", "values": [
      {"measurement": "inhibitory effect on FabI activity", "setting": "FabI [1]", "result": "minimal inhibitory effects"}
    ]},
    {"molecule": "CCCCCCCCCCCCCCCC(=O)SCCNC(=O)CCNC(=O)[C@H](O)C(C)(C)COP(=O)(O)OP(=O)(O)OC[C@H]1O[C@@H](n2cnc3c(N)ncnc32)[C@H](O)[C@@H]1OP(=O)(O)O", "note": "[palmitoyl-CoA]", "values": [
      {"measurement": "inhibition at 20 µM", "setting": "FabI [1]; read-out: inhibition of FabI crotonyl-CoA reduction activity", "result": "~50", "unit": "%"},
      {"measurement": "Ki", "setting": "FabI [2]; read-out: Ki towards FabI; literature, Helmut Bergler 1996; cited from earlier work", "result": 20, "unit": "µM"}
    ]},
    {"molecule": "CCCCCCCCCC(=O)SCCNC(=O)CCNC(=O)C(O)C(C)(C)COP(=O)(O)OP(=O)(O)OC[C@H]1O[C@@H](n2cnc3c(N)ncnc32)[C@H](O)[C@@H]1OP(=O)(O)O", "note": "(stereo partly shown) [decaonyl-CoA]", "values": [
      {"measurement": "Ki", "setting": "FabI [2]; literature, Helmut Bergler 1996; read-out: Ki towards FabI; cited from earlier work", "result": "~900", "unit": "µM"}
    ]},
    {"molecule": "C/C=C/C(=O)SCCNC(=O)CCNC(=O)[C@H](O)C(C)(C)COP(=O)(O)OP(=O)(O)OC[C@H]1O[C@@H](n2cnc3c(N)ncnc32)[C@H](O)[C@@H]1OP(=O)(O)O", "note": "[crotonyl-CoA]", "values": [
      {"measurement": "reported kcat", "setting": "FabI [3]", "result": 0.23, "unit": "s⁻¹"}
    ]},
    {"molecule": "FabI (Escherichia coli K-12) (protein) MGFLSGKRILVTGVASKLSIAYGIAQAMHREGAELAFTYQNDKLKGRVEEFAAQLGSDIVLQCDVAEDASIDTMFAELGKVWPKFDGFVHSIGFAPGDQLDGDYVNAVTREGFKIAHDISSYSFVAMAKACRSMLNPGSALLTLSYLGAERAIPNYNVMGLAKASLEANVRYMANAMGPEGVRVNAISAGPIRTLAASGIKDFRKMLAHCEAVTPIRRTVTIEDVGNSAAFLCSDLSAGISGEVVHVDGGFSIAAMNELELK", "values": [
      {"measurement": "Km", "setting": "[4]", "result": "4.6 ± 0.6", "unit": "mM"},
      {"measurement": "kcat", "setting": "[4]", "result": "5.3 ± 0.6", "unit": "s⁻¹"},
      {"measurement": "kcat/Km", "setting": "[4]", "result": 1150, "unit": "M⁻¹ s⁻¹"}
    ]}
  ]
}
